Test results from PMC6510909 (Investigational New Drugs, 2018).
Like-named read-outs stand apart in the source and are kept apart here.

How the values were obtained:
[1] = system: TBK1; experiment: TBK1 inhibition estimated from plasma Cmax; design: species or system human
[2] = Plasma pharmacokinetics on Cycle 1 Day 15, noncompartmental; format: in vivo, human; conditions: for Cmax / half-life / Tmax / AUC: human, plasma, oral
Method: Blood samples were collected from patients prior to the MMB dose and at specified time points up to 24 h post-dose on Cycle 1 Day 15. Pharmacokinetic (PK) parameters were estimated using Phoenix WinNonlin® software (Certara USA, Inc., Princeton, NJ) using standard noncompartmental methods.

[3] = system: patients with previously untreated metastatic PDAC; experiment: Phase 1 efficacy: best overall response (RECIST v1.1), OS, PFS, duration of response; format: in vivo, human
Method: All patients provided written informed consent prior to enrollment.
Staging CT or MRI scans were performed at baseline and approximately every 8 weeks following Cycle 1 Day 1. Imaging modalities were maintained over the course of the study. Treatment was to continue in the absence of disease progression, unacceptable toxicity, consent withdrawal, or refusal of treatment. After discontinuation of treatment, patients were followed for safety for 30 days.
The efficacy analyses were conducted in all enrolled patients.

[4] = 100 mg MMB QD n = 7, + nab-P + G
[5] = 150 mg MMB BID n = 3, + nab-P + G
[6] = 150 mg MMB QD n = 4, + nab-P + G
[7] = 200 mg MMB BID n = 4, + nab-P + G
[8] = 200 mg MMB QD n = 7, + nab-P + G
[9] = all cohorts, MMB + nab-P + G, n = 25
[10] = overall study population, MMB + nab-P + G

## N#CCNC(=O)c1ccc(-c2ccnc(Nc3ccc(N4CCOCC4)cc3)n2)cc1 [MMB, momelotinib]
[1]; based on the Cmax of approximately 300 ng/mL
  Estimated transient maximal TBK1 inhibition: EC70
[1]; pharmacokinetic analyses
  MMB concentrations relative to TBK1 inhibition: too low
[2]; 100-200 mg MMB
  Increases in exposure with dose: less than dose-proportional
[2]; Cycle 1 Day 15
  AUCtau, 200 mg once-daily compared with 100 mg once-daily: less than 2 fold
  Cmax, 200 mg once-daily compared with 100 mg once-daily: less than 2 fold
[2]; 100 mg, 100 mg MMB QD n = 6, steady state, mean (% coefficient of variation), read-out: Cmax
  Cmax: 258 ng/mL
[2]; 100 mg, 100 mg MMB QD n = 6, steady state, median (first quarter, third quarter), read-out: T 1/2 (converted)
  half-life: 5.4 h
[2]; 100 mg, 100 mg MMB QD n = 6, steady state, median (first quarter, third quarter), read-out: Tmax
  Tmax: 4.5 h
[2]; 100 mg, 100 mg MMB QD n = 6, steady state, mean (% coefficient of variation)
  AUC: 2000 ng·h/mL
[2]; 150 mg, 150 mg MMB BID n = 1, steady state
  AUC: 1520 ng·h/mL
[2]; 150 mg, 150 mg MMB BID n = 1, steady state, read-out: Cmax
  Cmax: 215 ng/mL
[2]; 150 mg, 150 mg MMB BID n = 1, steady state, read-out: T 1/2 (converted)
  half-life: 5 h
[2]; 150 mg, 150 mg MMB BID n = 1, steady state, read-out: Tmax
  Tmax: 3 h
[2]; 150 mg, 150 mg MMB QD n = 3, steady state, mean (% coefficient of variation), read-out: Cmax
  Cmax: 200 ng/mL
[2]; 150 mg, 150 mg MMB QD n = 3, steady state, median (first quarter, third quarter), read-out: T 1/2 (converted)
  half-life: 6.6 h
[2]; 150 mg, 150 mg MMB QD n = 3, steady state, median (first quarter, third quarter), read-out: Tmax
  Tmax: 3.2 h
[2]; 150 mg, 150 mg MMB QD n = 3, steady state, mean (% coefficient of variation)
  AUC: 1680 ng·h/mL
[2]; 200 mg, 200 mg MMB BID n = 3, steady state, mean (% coefficient of variation), read-out: Cmax
  Cmax: 330 ng/mL
[2]; 200 mg, 200 mg MMB BID n = 3, steady state, median (first quarter, third quarter), read-out: T 1/2 (converted)
  half-life: 5.5 h
[2]; 200 mg, 200 mg MMB BID n = 3, steady state, median (first quarter, third quarter), read-out: Tmax
  Tmax: 3 h
[2]; 200 mg, 200 mg MMB BID n = 3, steady state, mean (% coefficient of variation)
  AUC: 1980 ng·h/mL
[2]; 200 mg, 200 mg MMB QD n = 6, steady state, mean (% coefficient of variation), read-out: Cmax
  Cmax: 364 ng/mL
[2]; 200 mg, 200 mg MMB QD n = 6, steady state, median (first quarter, third quarter), read-out: T 1/2 (converted)
  half-life: 5.3 h
[2]; 200 mg, 200 mg MMB QD n = 6, steady state, median (first quarter, third quarter), read-out: Tmax
  Tmax: 3.5 h
[2]; 200 mg, 200 mg MMB QD n = 6, steady state, mean (% coefficient of variation)
  AUC: 3340 ng·h/mL
[2]; Cycle 1 Day 15, across dose levels, approximately, read-out: Median terminal half-life
  half-life: 5 to 6.6 h
[2]; Cycle 1 Day 15, across dose levels, approximately, read-out: Time to peak plasma concentration after the first dose of MMB
  Tmax: 3 to 4.5 h
[2]; across dose levels, approximately, read-out: Maximum plasma concentration (Cmax), overall
  Cmax: ~300 ng/mL
[2]; converted from approximately 300 ng/mL, read-out: Maximum plasma concentration (Cmax), overall
  Cmax: 720 nM
[3]; [4]
  Best overall response: CR: 0 n, (%)
  Best overall response: Not evaluable: 2 (28.6) n, (%)
  Best overall response: ORR (CR + PR): 2 (28.6) n, (%)
  Best overall response: PD: 1 (14.3) n, (%)
  Best overall response: PR: 2 (28.6) n, (%)
  Best overall response: SD: 2 (28.6) n, (%)
[3]; [5]
  Best overall response: CR: 0 n, (%)
  Best overall response: Not evaluable: 1 (33.3) n, (%)
  Best overall response: ORR (CR + PR): 1 (33.3) n, (%)
  Best overall response: PD: 0 n, (%)
  Best overall response: PR: 1 (33.3) n, (%)
  Best overall response: SD: 1 (33.3) n, (%)
[3]; [6]
  Best overall response: CR: 0 n, (%)
  Best overall response: Not evaluable: 0 n, (%)
  Best overall response: ORR (CR + PR): 1 (25.0) n, (%)
  Best overall response: PD: 1 (25.0) n, (%)
  Best overall response: PR: 1 (25.0) n, (%)
  Best overall response: SD: 2 (50.0) n, (%)
[3]; [7]
  Best overall response: CR: 0 n, (%)
  Best overall response: Not evaluable: 0 n, (%)
  Best overall response: ORR (CR + PR): 0 n, (%)
  Best overall response: PD: 0 n, (%)
  Best overall response: PR: 0 n, (%)
  Best overall response: SD: 4 (100.0) n, (%)
[3]; [8]
  Best overall response: CR: 0 n, (%)
  Best overall response: Not evaluable: 0 n, (%)
  Best overall response: ORR (CR + PR): 3 (42.9) n, (%)
  Best overall response: PD: 0 n, (%)
  Best overall response: PR: 3 (42.9) n, (%)
  Best overall response: SD: 4 (57.1) n, (%)
[3]; [9]
  Complete responses (CRs) across the dose cohorts: no CRs
  Partial responses (PRs) across the dose cohorts: 7
  Stable disease as the best response, patients: 52%
[3]; all cohorts, MMB + nab-P + G, n = 25, 95% CI 12.1%–49.4%
  Objective response rate (ORR), overall study population: 28%
[3]; [10]
  Median (95% CI) OS: 8.7 (6.7, 18.8) months
  Median (95% CI) PFS: 5.7 (5.3, 7.2) months
[3]; the 7 patients with a PR
  Median (95% CI) duration of response: 4.0 (0.5, not reached) months
